Test results from patent publication US20260306500A1, “METHOD OF INHIBITING ADENOSINE TRIPHOSPHATE SECRETION, METHOD OF INHIBITING HEPATIC STELLATE CELL ACTIVATION, METHOD OF DEACTIVATING HEPATIC STELLATE CELL, METHOD OF TREATING HEPATIC FIBROSIS, METHOD OF TREATING NON-ALCOHOLIC STEATOHEPATITIS, AND METHOD OF TREATING PSORIASIS” (Kurume University, priority 2023, published 2026).

What was measured:
[1] = PEP; cited from earlier work
VNUT = conditions: known; cited from earlier work
keratinocytes = assay: Imiquimod-induced ATP secretion in keratinocytes; type: cell-based, human; conditions: 18 hours, N=8 (FIG. 32)
Experimental: In the same manner as in Example 1, keratinocytes were cultured at 2.5×10^4 cells/well in a 24-well plate at 37° C. in 5% CO2 for 4 days. The medium was replaced with HBSS (manufactured by Gibco) supplemented with 1 μM or 10 μM imeglimin, and incubation was performed at 37° C. in 5% CO2 for 18 hours. Thereafter, imiquimod was added thereto at 1 μg/ml or 0.5 μg/ml, and incubation was performed for 15 minutes, followed by collection of 200 μl of the supernatant. The supernatant was immediately treated on a heat block at 95° C. for 10 minutes, and ATP in the supernatant was quantified using a ATP Assay Kit—Luminescence (manufactured by Dojindo) (N=8).

mouse auricle = assay: Imiquimod-induced psoriasis relapse model (Example 20); type: in vivo; conditions: 40 mg/kg oral
Experimental: To the left auricle of each mouse, 62.5 mg of 5% imiquimod cream (Beselna Cream 5%) was applied once daily a total of seven times (Days 1 to 7) in accordance with Example 19 to induce imiquimod-induced psoriasis. Thereafter, the imiquimod treatment was interrupted, and imeglimin (40 mg/kg) was orally administered on alternate days for 2 weeks (Day 8 to 22) (IMG). Mice without administration of imeglimin were designated IMQ. On Day 23, the imiquimod treatment was resumed, and 62.5 mg of 5% imiquimod cream (Beselna Cream 5%) was applied once daily a total of […]. In parallel, imeglimin (40 mg/kg) was orally administered daily to IMG.

mouse liver = assay: Thioacetamide-induced hepatic fibrosis in mice: histology, immunostaining and fibrosis score; type: in vivo; conditions: 200 mg/kg p.o. three times per week
Experimental: Wild-type mice, […] (manufactured by Charles River Japan), were housed on a 12-hour light/dark cycle and fed a standard solid diet (5.4% fat, CRF-1, manufactured by Oriental Yeast Co., Ltd.) ad libitum. Thioacetamide (TAA, manufactured by FUJIFILM Wako Pure Chemical Corporation) was dissolved in physiological saline at 0.9% w/v. Eight-week-old mice were randomly assigned to three groups and continuously treated for 9 weeks according to the following scheme. At Week 9, all mice were euthanized 1 hour after administration of physiological saline or IMG.
Normal control group (N=6): Physiological saline was intraperitoneally administered to mice three times per week. Eight hours after each administration, a vehicle was orally administered to the mice.
TAA group (N=6): TAA (50 mg/kg, intraperitoneal) was administered to mice. Eight hours thereafter, physiological saline was orally administered to the mice. This treatment was performed three times per week for a total of 9 weeks.
TAA+IMG group (N=6): During the first week, physiological saline was orally administered to mice. Thereafter, imeglimin (IMG) at 200 mg/kg was orally administered three times per week for 8 weeks. The administration of IMG was performed 8 hours after intraperitoneal administration of TAA (50 mg/kg).
For immunohistochemical analysis, liver samples were fixed in 4% paraformaldehyde, embedded in paraffin, and then sectioned. The sections were stained with HE or PSR. In addition, the paraffin-embedded sections were subjected to immunostaining using an α-SMA monoclonal antibody (1:500, catalog No. A5228, manufactured by Sigma-Aldrich) and an F4/80 monoclonal antibody (1:200, catalog No. MCA497GA, manufactured by AbD Serotec). The cell specimens were observed using a microscope (BZ-X700 series, manufactured by Keyence) or a confocal laser microscope (FV1000, manufactured by Olympus Corporation). The number of F4/80-positive cells was counted in four high-power fields per section. The α-SMA-positive area and the PSR-positive area were quantified using the image analysis software Fiji-ImageJ (1.54f).
A histological score was determined by a blinded investigator using the NAFLD histological scoring system of the Nonalcoholic Steatohepatitis Clinical Research Network. The total NAFLD activity score (NAS) was calculated from the total of the individual scores for steatosis ([…]), lobular inflammation (F4/80), and hepatocyte ballooning. The range of each parameter was 0 to 2 (ballooning) or 3 (the other two scores), where 0 indicates normal and 2 or 3 indicates severe. Staging of fibrosis was based on the NASH fibrosis stages, and a fibrosis stage ranging from 0 to 4 was determined according to Reference H (David E. Kleiner et al., 2005, Design and validation of a histological scoring system for nonalcoholic fatty liver disease, Hepatology, 41, 1313-1321).
All results are expressed as the mean±standard error of the mean (S.E.M.). Statistical analyses were performed using GraphPad Prism 7.0 (GraphPad Software). Significance upon comparison between two groups was evaluated by an unpaired two-tailed Student's t-test. […]. Statistical significance among three or more groups was determined by two-way analysis of variance (ANOVA) with Tukey's or Dunnett's post hoc test. Coloc2 was used to perform image analysis, automatic thresholding, and pixel intensity correlation for statistical processing. Statistical significance was assumed when the P value was <0.05.

Q: With C=C(OP(=O)(O)O)C(=O)O [PEP, phosphoenolpyruvic acid] as the compound, how does the “permeation of the cell membrane” value [1] read?
A: freely permeate the cell membrane

Q: Which VNUT inhibition (VNUT) does the source give for O=P(O)(O)C(Cl)(Cl)P(=O)(O)O [clodronate] here?
A: known to be a VNUT inhibitor

Q: For C[C@@H]1N=C(N)NC(N(C)C)=N1 [imeglimin], which “imiquimod-promoted ATP secretion” value (keratinocytes; 1 μM imeglimin) is on record?
A: strongly inhibited

Q: What about the “imiquimod-promoted ATP secretion” value (keratinocytes; 10 NM imeglimin (so in the source)) of the same compound?
A: strongly inhibited

Q: What about the “relapse-preventing effect on psoriasis” value (mouse auricle) of the same compound?
A: relapse-preventing effect on psoriasis

Q: What about the “psoriatic symptoms after resumed imiquimod treatment” value (mouse auricle; alternate days Day 8 to 22, then daily from Day 23 (FIG. 43)) of the same compound?
A: markedly reduced compared to IMQ

Q: And the “destruction of the lobular structure, hepatocyte ballooning, and inflammatory cell infiltration” value (mouse liver; 8 weeks)?
A: reduced

Q: And the fibrosis stage (mouse liver; 8 weeks)?
A: reducing the fibrosis stage

Q: And the “TAA-induced increase in F4/80-positive macrophages” value (mouse liver; 8 weeks (FIG. 27))?
A: strongly suppressed

Q: What about the “TAA-induced increase in α-SMA-positive reaction” value (mouse liver; 8 weeks (FIG. 27)) of the same compound?
A: strongly suppressed

Q: And the “TAA-induced increase in fibrosis score” value (mouse liver; 8 weeks (FIG. 28))?
A: suppressed

Q: What about the PSR staining-positive area (mouse liver; 8 weeks, TAA+IMG vs TAA group, N=6) of the same compound?
A: significantly reduced
